These results are taken from patent publication US10106515B2, “1-(cyclopent-2-en-1-yl)-3-(2-hydroxy-3-(arylsulfonyl)phenyl)urea derivatives as CXCR2 inhibitors” (GLAXOSMITHKLINE INTELLECTUAL PROPERTY DEVELOPMENT LIMITED, priority 2014, dated 2018).

The structures appear in SMILES notation. Where a name gives a salt, the structure may show the parent alone.

This test has as its target T1, recombinant human CXCR2 (Homo sapiens, UniProt P25025).
T1 construct: TEV protease site; Gal4-VP16 transcription factor
T1 sequence (P25025 1-360): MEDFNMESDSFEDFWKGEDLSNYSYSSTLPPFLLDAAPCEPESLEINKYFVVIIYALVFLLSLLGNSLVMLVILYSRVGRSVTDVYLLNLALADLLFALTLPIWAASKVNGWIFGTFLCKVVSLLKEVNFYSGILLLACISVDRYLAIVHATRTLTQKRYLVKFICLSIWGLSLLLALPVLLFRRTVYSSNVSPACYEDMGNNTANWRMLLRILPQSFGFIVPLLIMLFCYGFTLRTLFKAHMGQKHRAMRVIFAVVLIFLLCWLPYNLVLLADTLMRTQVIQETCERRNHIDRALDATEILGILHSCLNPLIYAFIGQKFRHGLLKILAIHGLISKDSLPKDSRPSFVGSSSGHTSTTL
Put plainly: CXCR2 Tango assay. It counts as cell-based. The note with it: mean pIC50 of multiple test results; stimulated with 80 nM hCXCL1; reporter gene blue/green emission ratio; read-out: pIC50 (CXCR2 Tango assay) (converted). The source says: The assay measures ligand-induced activation of the receptor CXCR2 in a stable cell line containing the recombinant human CXCR2 linked to a TEV protease site and a Gal4-VP16 transcription factor (Invitrogen). Ligand binding to the receptor results in the recruitment of arrestin proteins (tagged with protease) to the receptor and triggers the release of a tethered transcription factor. The transcription factor enters the nucleus and activates the transcription of the reporter gene. The ability of a compound to inhibit CXCR2 activation is indirectly assessed by measuring the reporter gene activity.
A vial of cryopreserved cells was removed from liquid nitrogen and rapidly thawed in a water bath at 37° C. with gentle agitation. The contents of the vial were transferred drop-wise into Thawing Medium in a sterile 15 ml conical tube and then centrifuged at 1000 rpm for 4-5 min. Then the cell pellets were resuspended in Assay Medium at a density of ˜200,000 cells/ml. All test compounds were dissolved in DMSO at a concentration of 10 mM and were prepared in 100% DMSO to provide 10 point dose response curves. A reference CXCR2 antagonist was added to wells in row 2, columns 1-5 & 7-11. Exemplified compounds 1-4, 7, 8-10, 13-22, 24-26, 28-30, 32, 33, 36, 37, 40, 42-44. 95-110, 115-118, 120, 121, 125, 126, 129-134, 137, 138, 140, 142, 147-149, 153-157, 159-162, 163-166, 168, 170, 172, 174-180 and 202 were tested using the CXCR2 antagonist sodium 3-chloro-6-(3-(2,3-dichlorophenyl)ureido)-2-sulfamoylphenolate as reference compound (Reference Compound 1) (published International patent application WO2002/079122). […] Test compounds were added to wells in row 2, columns 13-17 & 19-23 and rows 3-15, columns 1-5 & 7-11/13-17 & 19-23 (columns 6 and 18 as positive controls and un-stimulated controls respectively; columns 12 and 24 as cell-free control). Compounds in solution were added to the assay plate (Greiner 781090) using an Echo (Labcyte) concentration-response program (50 nl/well). The cell-free, un-stimulated and positive controls were loaded with 50 nl/well pure DMSO to ensure that the DMSO concentration was constant across the plate for all assays. Using Multi-drop Combi (Thermo) with standard cassette, 50 μl of Assay Medium was added to each well in the cell-free controls (columns 12 and 24); 50 μl of the cell suspension without hCXCL1 (a CXCR2 ligand) was added to each well in column 18 of the plate (˜10,000 cells per well); and 50 μl of the cell suspension with 80 nM hCXCL1 was added to the rest of wells of the plate (˜10,000 cells per well). The cells were incubated overnight at 37° C./5% CO2. 10 μl of 6× substrate mixture (LiveBLAzer™-FRET B/G substrate (CCF4-AM) Cat # K1096 from Invitrogen, Inc.) was added to each well using Multi-drop Combi (Thermo) with small-tube cassette and the plates incubated at room temperature for 2 h in the dark. The plate was finally read on EnVision using one excitation channel (409 nm) and two emission channels (460 nm and 530 nm).
The blue/green emission ratio (460 nm/530 nm) was calculated for each well, by dividing the background-subtracted Blue emission values by the background-subtracted Green emission values. The dose response curve was based on sigmoidal dose-response model. All ratio data was normalized based upon the maximum emission ratio of positive control (hCXCL1) and minimum emission ratio of negative control (DMSO) on each plate. The intrinsic activity (IA) of each compound would be the normalized percentage of its maximum response after curve fitting.
All exemplified compounds (except for Compounds 203 and 204) were tested in the CXCR2 Tango assay or a similar assay described above. The data mentioned below represents a mean pIC 50 value of multiple test results. It is understood that the data illustrated below may have reasonable variation depending on the specific conditions and procedures used by the person conducting the testing.
Background: In a reporter assay the amount or activity of a reporter protein is the signal.
Regarding `CC1=C(F)CCC1NC(=O)Nc1ccc(Cl)c(S(=O)(=O)C(C)C)c1O` (stereo not drawn) [Compound 17, 1-(4-chloro-2-hydroxy-3-(isopropylsulfonyl)phenyl)-3-(3-fluoro-2-methylcyclopent-2-en-1-yl)urea], the IC50 is not above 10 nM.

Turning to `CC1=CCCC1NC(=O)Nc1ccc(Cl)c(S(=O)(=O)C(C)(F)F)c1O` (stereo not drawn) [Compound 106, 1-(4-chloro-3-((1,1-difluoroethyl)sulfonyl)-2-hydroxyphenyl)-3-(2-methylcyclopent-2-en-1-yl)urea], the IC50 is not above 1 nM.

Take `CC1=CCCC1NC(=O)Nc1ccc(Cl)c(S(=O)(=O)N2CCOCC2)c1O` (stereo not drawn) [Compound 118, 1-(4-chloro-2-hydroxy-3-(morpholinosulfonyl)phenyl)-3-(2-methylcyclopent-2-en-1-yl)urea]: the IC50 is not above 10 nM.

On to `CN(C)[C@H]1C[C@H](S(=O)(=O)c2c(Cl)ccc(NC(=O)NC3CCC=C3Cl)c2O)C1` (stereo partly drawn) [Compound 134, 1-(4-chloro-3-((trans-3-(dimethylamino)cyclobutyl)sulfonyl)-2-hydroxyphenyl)-3-(2-chlorocyclopent-2-en-1-yl)urea], for which the IC50 was not above 10 nM.

On to `CO[C@H]1C[C@@H](S(=O)(=O)c2c(Cl)ccc(NC(=O)NC3CCC=C3Cl)c2O)C1` (stereo partly drawn) [Compound 149, 1-(4-chloro-2-hydroxy-3-((cis-3-methoxycyclobutyl)sulfonyl)phenyl)-3-(2-chlorocyclopent-2-en-1-yl)urea], for which the IC50 is not above 10 nM.

Regarding `O=C(Nc1ccc(Cl)c(S(=O)(=O)C2CCOCC2)c1O)NC1CCC=C1Cl` (stereo not drawn) [Compound 180, 1-(4-chloro-2-hydroxy-3-((tetrahydro-2H-pyran-4-yl)sulfonyl)phenyl)-3-(2-chlorocyclopent-2-en-1-yl)urea], the IC50 is not above 10 nM.

For the molecule `COC[C@H]1C[C@H](S(=O)(=O)c2c(Cl)ccc(NC(=O)NC3CCC=C3C)c2O)C1` (stereo partly drawn) [Compound 153, 1-(4-chloro-2-hydroxy-3-((trans-3-(methoxymethyl)cyclobutyl)sulfonyl)phenyl)-3-(2-methylcyclopent-2-en-1-yl)urea], the IC50 is not above 10 nM.

As to `O=C(O)C(F)(F)F.[2H]C1(S(=O)(=O)c2c(Cl)ccc(NC(=O)N[C@@H]3CCC=C3Cl)c2O)CCN(C2CCC2)CC1` [Compound 169, (R)-1-(4-chloro-3-((1-cyclobutylpiperidin-4-yl)sulfonyl)-2-hydroxyphenyl)-3-(2-chlorocyclopent-2-en-1-yl)urea-d1, trifluoroacetic acid salt], the IC50 was not above 1 nM.

As to `CC1=CCCC1NC(=O)Nc1ccc(Cl)c(S(=O)(=O)C(C)(C)C)c1O` (stereo not drawn) [Compound 100, 1-(3-(tert-butylsulfonyl)-4-chloro-2-hydroxyphenyl)-3-(2-methylcyclopent-2-en-1-yl)urea], the IC50 was not above 10 nM.

`CC1=CCC[C@H]1NC(=O)Nc1ccc(Cl)c(S(=O)(=O)[C@H]2C[C@H](F)C2)c1O` [Compound 50, 1-(4-chloro-3-((trans-3-fluorocyclobutyl)sulfonyl)-2-hydroxyphenyl)-3-((R)-2-methylcyclopent-2-en-1-yl)urea]: the IC50 was not above 1 nM.

In the case of `CC1=CCCC1NC(=O)Nc1ccc(Cl)c(S(=O)(=O)[C@H]2C[C@H](N3CCCC3)C2)c1O` (stereo partly drawn) [Compound 96, 1-(4-chloro-2-hydroxy-3-(((1r,3r)-3-(pyrrolidin-1-yl)cyclobutyl)sul-fonyl)phenyl)-3-(2-methylcyclopent-2-en-1-yl)urea, trifluoroacetic acid salt], the IC50 was not above 10 nM.

Regarding `CC1=CCCC1NC(=O)Nc1ccc(Cl)c(S(=O)(=O)C2CC3(CCN(C)CC3)C2)c1O` (stereo not drawn) [Compound 140, 1-(4-chloro-2-hydroxy-3-((7-methyl-7-azaspiro[3.5]nonan-2-yl)sulfonyl)phenyl)-3-(2-methylcyclopent-2-en-1-yl)urea], the IC50 is not above 10 nM.

As to `CC1=CCCC1NC(=O)Nc1ccc(Cl)c(S(=O)(=O)N2CC(F)(F)C2)c1O` (stereo not drawn) [Compound 111, 1-(4-chloro-3-((3,3-difluoroazetidin-1-yl)sulfonyl)-2-hydroxyphenyl)-3-(2-methylcyclopent-2-en-1-yl)urea], the IC50 is not above 10 nM.

On to `O=C(Nc1ccc(Cl)c(S(=O)(=O)[C@H]2C[C@H](N3CCCC3)C2)c1O)NC1C=CCC1` (stereo partly drawn) [Compound 174, 1-(4-chloro-2-hydroxy-3-((trans-3-(pyrrolidin-1-yl)cyclobutyl)sul-fonyl)phenyl)-3-(cyclopent-2-en-1-yl)urea], for which the IC50 was not above 10 nM.

As for `COC1CCN(S(=O)(=O)c2c(Cl)ccc(NC(=O)NC3CCC=C3C)c2O)CC1` (stereo not drawn) [Compound 154, 1-(4-chloro-2-hydroxy-3-((4-methoxypiperidin-1-yl)sulfonyl)phenyl)-3-(2-methylcyclopent-2-en-1-yl)urea], the IC50 is not above 10 nM.

As for `O=C(Nc1ccc(Cl)c(S(=O)(=O)[C@H]2C[C@@H](O)C2)c1O)N[C@@H]1CCC=C1Cl` [Compound 162, 1-(4-chloro-2-hydroxy-3-((cis-3-hydroxycyclobutyl)sulfonyl)phenyl)-3-((R)-2-chlorocyclopent-2-en-1-yl)urea], the IC50 is not above 1 nM.

With `O=C(O)C(F)(F)F.[2H]C([2H])([2H])N1CCC(C)(S(=O)(=O)c2c(Cl)ccc(NC(=O)N[C@@H]3CCC=C3C)c2O)CC1` [Compound 139, (R)-1-(4-chloro-2-hydroxy-3-((4-methyl-1-(d3-methyl)piperidin-4-yl)sulfonyl)phenyl)-3-(2-methylcyclopent-2-en-1-yl)urea, trifluoroacetic acid salt], the IC50 was not above 10 nM.

In the case of `CC1=CCC[C@H]1NC(=O)Nc1ccc(Cl)c(S(=O)(=O)C2CCC[C@H](O)C2)c1O` (stereo partly drawn) [Compound 52, 1-(4-chloro-2-hydroxy-3-((trans-3-hydroxycyclohexyl)sulfonyl)phenyl)-3-((R)-2-methylcyclopent-2-en-1-yl)urea], the IC50 is not above 1 nM.

In the case of `CN(C)[C@H]1CC[C@@H](S(=O)(=O)c2c(Cl)ccc(NC(=O)NC3CCC=C3Cl)c2O)CC1` (stereo partly drawn) [Compound 130, 1-(4-chloro-3-((cis-4-(dimethylamino)cyclohexyl)sulfonyl)-2-hydroxyphenyl)-3-(2-chlorocyclopent-2-en-1-yl)urea, trifluoroacetic acid salt], the IC50 is not above 1 nM.

Take `CC(C)(c1ccccn1)S(=O)(=O)c1c(Cl)ccc(NC(=O)NC2CCC=C2Cl)c1O` (stereo not drawn) [Compound 4, 1-(4-chloro-2-hydroxy-3-((2-(pyridin-2-yl)propan-2-yl)sulfonyl)phenyl)-3-(2-chlorocyclopent-2-en-1-yl)urea, trifluoroacetic acid salt]: the IC50 is not above 10 nM.

Take `COCCN1CCN(S(=O)(=O)c2c(Cl)ccc(NC(=O)NC3CCC=C3C)c2O)CC1` (stereo not drawn) [Compound 161, 1-(4-chloro-2-hydroxy-3-((4-(2-methoxyethyl)piperazin-1-yl)sulfonyl)phenyl)-3-(2-methylcyclopent-2-en-1-yl)urea]: the IC50 is not above 10 nM.
